Data published in publication PMC6747051, “Screening of Antiviral Components of Ma Huang Tang and Investigation on the Ephedra Alkaloids Efficacy on Influenza Virus Type A” (Frontiers in Pharmacology, 2019).
In brackets after ≈: the same amount, converted by molar mass. Entries after “also recorded” stand apart in the source; their conditions may differ.

How the values were obtained:
[1] = test system: TLRs signaling pathway mRNA; assay type: cell-based, canine
[2] = test system: IL-6, IFN-β and TNF-α levels; assay type: cell-based, canine
[3] = test system: influenza A virus (A PR/8/34); test: HE assay of lung tissue of infected mice; assay type: in vivo, ICR mice; settings: days 3 and 7 post-infection, 40, 20, 10 mg/kg
Procedure: (§1) A total of 108 ICR mice were randomly divided into the control uninfected group, the control infected group, oseltamivir group, LEP-treated groups and DPEP-treated groups; 12 mice were designed in each group. Except for the mice in the control uninfected group, others were anaesthetized with ethyl ether and intranasally infected with 10LD50 influenza A virus (A PR/8/34) in a volume of 50 μl PBS to induce viral pneumonia. […] Meanwhile, the control uninfected group and the control infected group were only given saline with the same volume. […] The adult daily dose was converted into the high dose of mice, which was about 40 mg/kg. Based on the high dose of the drug, the medium and low doses were set.
In the 3rd and 7th days after infection, the right lung lobes from each mouse were washed with normal saline and immediately soaked in 10% normal buffered formalin for one week. Then the samples were dehydrated with ethanol and embedded in paraffin. The 4-μm-thick lung sections were stained with HE and the pathological changes of lung tissue were observed under the light microscope.

influenza A virus [4] = test: microbe, parasite or virus in culture; settings: MDCK, 48 h, read-out: Cell survival rate
influenza A virus [5] = settings: dog
influenza A virus [6] = test: Viral load assay using real-time RT-PCR (M1 gene) and CPE in infected MDCK cells; assay type: cell-based, influenza virus A/PR8/34 (H1N1); settings: 24 and 48 h after administration; for viral load in MDCK cells vs control infected group: each dose group, P < 0.01 or P < 0.05
[7] = test system: influenza A virus (A PR/8/34); test: RT-PCR analysis of viral load in murine lung tissue; assay type: in vivo, ICR mice
Procedure: as §1
In the 3rd and 7th days after infection, the left lung lobes from each mouse were washed with normal saline and stored at -80°C for RT-PCR and western blot analysis use. For RT-PCR analysis, the left lung was homogenized in precooled normal saline and centrifuged at 4000 rpm for 10 min at 4 °C. Total RNA was extracted using the High Pure Viral Nucleic Acid kit and cDNA was synthesized with the PrimeScript™ RT Master Mix kit. The specific steps of RT-PCR amplification were the same as the previous section in the present study. The related primers for mouse were designed by Sangon Biotech, Co., Ltd. (Shanghai, China) and are described in Table S2 .

[8] = test system: TLR4, TLR7, MyD88 and NF-κB p65 protein expression; design: species or system ICR mice; settings: mouse, in vivo
influenza A virus [9] = test: Antiviral activity assay in vitro with four ways of drug delivery (MTT, MDCK cells); assay type: cell-based, influenza virus A/PR8/34 (H1N1); settings: for EC50: Influenza A virus, MDCK; for antiviral effective rate (ER): final concentration 3.91 μg/ml
[10] = test system: IL-1β, IL-6 and IL-10 in serum; assay type: in vivo, ICR mice; settings: 3rd and 7th day after infection; for IL-10 in serum: P < 0.01; for IL-1β in serum: P < 0.01 or P < 0.05; for IL-6 in serum: P > 0.05
Procedure: as §1
In days 3 and 7 post-infection, blood samples of six mice from each group were collected from retroorbital sinus under mild ethyl ether anesthesia before they were sacrificed, then under 4 °C they were centrifuged at 3000 rpm for 20 min to obtain serum. The levels of IL-1β, IL-6 and IL-10 in murine serum were determined by ELISA kits.

[11] = test system: TNF-α, IFN-γ, TLR3, TLR4, TLR7, MyD88, NF-κB p65 and RIG-1 mRNA; design: species or system ICR mice; settings: mouse, in vivo
[12] = 3rd day after infection, three doses, P < 0.01 or P < 0.05
[13] = 7th day after infection, 40 and 20 mg/kg groups, P < 0.05
[14] = drug delivery way: Blocking viruses invading host cells
[15] = drug delivery way: Directly inhibiting virus
[16] = drug delivery way: Inhibiting the biosynthesis of virus
[17] = drug delivery way: Intervening the adsorption of virus

SMILES | mRNA expression levels of TLR7, NF-κB p65, TLR3 and IRF3 [1] | mRNA expression of IFN-β [1] | IL-6 level in cell supernatant vs control infected group [2] | level of IFN-β in cell supernatant vs control infected group [2] | secretion of TNF-α vs control infected group [2] | histopathological responses of lung tissue [3] | viability at 0.49 µg/mL (influenza A virus [4]) [%] | viability at 0.98 µg/mL (influenza A virus [4]) [%] | viability at 1.95 µg/mL (influenza A virus [4]) [%] | viability at 3.91 µg/mL (influenza A virus [4]) [%] | viability at 7.81 µg/mL (influenza A virus [4]) [%] | cell viability rate (influenza A virus [5]) [%] | CPE of infected MDCK cells (influenza A virus [6]) | viral load in MDCK cells vs control infected group (influenza A virus [6]) | viral load in lung tissue vs control infected group [7, 12] | viral load in lung tissue vs control infected group [7, 13] | inhibition effect on protein expression of TLR4 and TLR7 in lung tissue [8] | protein expression levels of MyD88 and NF-κB p65 in lung tissue [8] | protein expression levels of TLR4 and TLR7 in lung tissue [8] | protein expression of TLR4, TLR7 and NF-κB p65 in comparison to oseltamivir [8] | further results
CN[C@@H](C)[C@@H](O)c1ccccc1 [DPEP, D-pseudoephedrine] | significantly reduced | significantly increased | significantly higher than that in the control infected group | significantly increase; also recorded: increased | significantly inhibited the secretion of TNF-α | attenuated the inflammation | 45.3 | 54.7 | 61.2 | 63.9 | 72.5 | ≥ 70 | significantly reduce the CPE | significantly decreased | significantly decreased | significantly reduced | not obvious | significantly down-regulated | Decreased | dramatically inhibit | IFN-β mRNA expression compared with the oseltamivir group [1]: significantly increased; mRNA expression levels of MyD88, TRAF6 and TRAF3 [1]: obvious decreased; mRNA expression levels of NF-κB p65, TRAF3 and IRF3 compared with the oseltamivir group [1]: significantly reduced; mRNA expression levels of TRAF6 and TLR4 [1]: reduced; mRNA expression of MyD88 and TRAF3 [1]: significant decreased; mRNA expression of TLR4 [1]: significant decreased; EC50 (influenza A virus [9]; [14]): 8.17 µg/mL (≈ 49.4 µM); EC50 (influenza A virus [9]; [15]): 6.04 µg/mL (≈ 36.6 µM); EC50 (influenza A virus [9]; [16]): 4.67 µg/mL (≈ 28.3 µM); EC50 (influenza A virus [9]; [17]): 7.57 µg/mL (≈ 45.8 µM); antiviral effective rate (ER) (influenza A virus [9]): more than 38.00%; IL-10 in serum [10]: accelerated the production of IL-10; IL-1β in serum [10]: dramatically inhibited the production of IL-1β; IL-6 in serum [10]: slightly increased; mRNA expression levels of TLR3, TLR4, TLR7, MyD88, NF-κB p65 and RIG-1 in lung tissue [11]: obviously inhibited; mRNA expression of IFN-γ in lung tissue [11]: significantly promoted; mRNA expression of TNF-α in lung tissue [11]: markedly inhibited
CN[C@@H](C)[C@H](O)c1ccccc1 [LEP, L-ephedrine] | significantly reduced | significantly increased | significantly higher than that in the control infected group | significantly increase; also recorded: increased | significantly inhibited the secretion of TNF-α | attenuated the inflammation | 42.6 | 51.6 | 57.8 | 61.5 | 67.2 | ≥ 70 | significantly reduce the CPE | significantly decreased | significantly decreased | significantly reduced | not obvious | significantly down-regulated | Decreased | dramatically inhibit | mRNA expression levels of TLR4 and TRAF3 [1]: inhibited; mRNA expression of MyD88 and TRAF6 [1]: marked decreased; mRNA expression of TLR4 and MyD88 [1]: significantly inhibited; mRNA expression of TRAF6 and TRAF3 [1]: decreased; EC50 (influenza A virus [9]; [14]): 11 µg/mL (≈ 66.3 µM); EC50 (influenza A virus [9]; [15]): 6.28 µg/mL (≈ 38 µM); EC50 (influenza A virus [9]; [16]): 5.66 µg/mL (≈ 34.3 µM); EC50 (influenza A virus [9]; [17]): 7.15 µg/mL (≈ 43.3 µM); antiviral effective rate (ER) (influenza A virus [9]): > 36.00%; IL-10 in serum [10]: accelerated the production of IL-10; IL-1β in serum [10]: dramatically inhibited the production of IL-1β; IL-6 in serum [10]: slightly increased; mRNA expression levels of TLR3, TLR4, TLR7, MyD88, NF-κB p65 and RIG-1 in lung tissue [11]: obviously inhibited; mRNA expression of IFN-γ in lung tissue [11]: significantly promoted; mRNA expression of TNF-α in lung tissue [11]: markedly inhibited
